This note sets out measurements from patent publication US6979560B1, “Eschericha bacteria overexpressing the yahn gene for feedback-insensitive amino acid production” (priority 1998, dated 2005).

What all share (format): cell-based
One experiment deals with E. coli TG1/pUC21. Put plainly: MIC of amino acids and analogues on M9 agar, control strain TG1/pUC21. Conditions: for MIC: Escherichia coli. As to the method: (§1) Therefore, the effect of the pYEAS, pYAHN, PYFIK, and pYGGA plasmids on susceptibility of the strain TG1 to some amino acids and amino acid analogues was tested. Overnight cultures of the E. coli strains TG1/pYEAS, TG1/pYAHN, TG1/pYFIK, TG1/pYGGA and of the control strains TG1/pUC21, TG1/pUC19 and TG1/pOK12 grown in M9 minimal medium with an appropriate antibiotic on a rotary shaker (10^9 cfu/ml) were diluted 1:100 in M9 minimal medium and grown for 5 h in the same medium. Then the log phase cultures thus obtained were diluted and about 10^4 alive cells were applied to well-dried test plates with M9 agar containing doubling increments of amino acids or analogues. Thus the minimum inhibition concentration (MIC) of these compounds were examined.

The test system of a further experiment is E. coli TG1/pYAHN. In words: microbe, parasite or virus in culture. Conditions: for MIC: Escherichia coli, TG1/PYAHN, read-out: MIC (μg/ml) for E. coli TG1, harboring the plasmid pYAHN.
Text: as §1, with “The homology of the yeaS, yfiK, yahN and yggA gene products with the lysine transporter, LysE, of Corynebacterium glutamicum (Vrljic et al., Mol. Microbiol.,22, 815-826, 1996) and RhtB protein involved in homoserine excretion, indicates the analogues function for these proteins. It is well known that the increased expression of the genes involved in antibiotic and heavy metal efflux increases the level of resistance to the drugs (Nikaido, H. J. Bacteriology, 178, 5853-5859, 1996). Therefore,” for “Therefore,”

In another experiment the test system is E. coli TG1/pYEAS. Put plainly: microbe, parasite or virus in culture. Conditions: for MIC: Escherichia coli, TG1/PYEAS, read-out: MIC (μg/ml) for E. coli TG1, harboring the plasmid pYEAS.
Text: as §1, with “The homology of the yeaS, yfiK, yahN and yggA gene products with the lysine transporter, LysE, of Corynebacterium glutamicum (Vrljic et al., Mol. Microbiol.,22, 815-826, 1996) and RhtB protein involved in homoserine excretion, indicates the analogues function for these proteins. It is well known that the increased expression of the genes involved in antibiotic and heavy metal efflux increases the level of resistance to the drugs (Nikaido, H. J. Bacteriology, 178, 5853-5859, 1996). Therefore,” for “Therefore,”

Another experiment deals with E. coli TG1/pYFIK. In words: microbe, parasite or virus in culture. The settings on record: for MIC: Escherichia coli, TG1/PYFIK, read-out: MIC (μg/ml) for E. coli TG1, harboring the plasmid pYFIK.
Text: as §1, with “The homology of the yeaS, yfiK, yahN and yggA gene products with the lysine transporter, LysE, of Corynebacterium glutamicum (Vrljic et al., Mol. Microbiol.,22, 815-826, 1996) and RhtB protein involved in homoserine excretion, indicates the analogues function for these proteins. It is well known that the increased expression of the genes involved in antibiotic and heavy metal efflux increases the level of resistance to the drugs (Nikaido, H. J. Bacteriology, 178, 5853-5859, 1996). Therefore,” for “Therefore,”

A further experiment concerns E. coli TG1/pYGGA. Put plainly: microbe, parasite or virus in culture. The settings on record: for MIC: Escherichia coli, TG1/PYGGA, read-out: MIC (μg/ml) for E. coli TG1, harboring the plasmid pYGGA.
Text: as §1, with “The homology of the yeaS, yfiK, yahN and yggA gene products with the lysine transporter, LysE, of Corynebacterium glutamicum (Vrljic et al., Mol. Microbiol.,22, 815-826, 1996) and RhtB protein involved in homoserine excretion, indicates the analogues function for these proteins. It is well known that the increased expression of the genes involved in antibiotic and heavy metal efflux increases the level of resistance to the drugs (Nikaido, H. J. Bacteriology, 178, 5853-5859, 1996). Therefore,” for “Therefore,”

[1] abbreviates: E. coli TG1 harboring pUC21 (control vector), M9 agar, doubling increments, read-out: MIC (μg/ml) for E. coli TG1, harboring the plasmid pUC21.

In brackets after ≈: the same amount, converted by molar mass. Read-outs that look alike come from different tables or passages of the source.

Turning to `C[C@@H](O)[C@H](N)C(=O)O` [L-threonine], the MIC in the experiment with E. coli TG1/pUC21 (setting [1]) amounted to 30000 µg/mL; with E. coli TG1/pYAHN, 30000 µg/mL (≈ 252 mM); in the experiment on E. coli TG1/pYEAS, 50000 µg/mL (≈ 420 mM); with E. coli TG1/pYFIK, 40000 µg/mL (≈ 336 mM); in the experiment with E. coli TG1/pYGGA, 30000 µg/mL (≈ 252 mM).
Take `NCCSC[C@H](N)C(=O)O` [AEC, S-(2-aminoethyl)-L-cysteine]: the MIC with E. coli TG1/pUC21 (setting [1]) came out at 5 µg/mL; in the experiment with E. coli TG1/pYAHN it was 5 µg/mL (≈ 0.0304 mM); in the experiment on E. coli TG1/pYEAS, 5 µg/mL (≈ 0.0304 mM); in the experiment on E. coli TG1/pYFIK, 10 µg/mL (≈ 0.0609 mM); in the experiment with E. coli TG1/pYGGA, 200 µg/mL (≈ 1.22 mM).
Regarding `N[C@@H](CCO)C(=O)O` [L-homoserine], the MIC amounted to 500 µg/mL in the experiment with E. coli TG1/pUC21 (setting [1]); 500 µg/mL (≈ 4.2 mM) in the experiment with E. coli TG1/pYAHN; 1000 µg/mL (≈ 8.39 mM) in the experiment on E. coli TG1/pYEAS; 1000 µg/mL (≈ 8.39 mM) with E. coli TG1/pYFIK; 500 µg/mL (≈ 4.2 mM) in the experiment on E. coli TG1/pYGGA.
With `N[C@@H](Cc1c[nH]cn1)C(=O)O` [L-histidine], the MIC worked out at 5000 µg/mL with E. coli TG1/pUC21 (setting [1]); 5000 µg/mL (≈ 32.2 mM) in the experiment on E. coli TG1/pYAHN; 30000 µg/mL (≈ 193 mM) with E. coli TG1/pYEAS; 10000 µg/mL (≈ 64.5 mM) with E. coli TG1/pYFIK; 5000 µg/mL (≈ 32.2 mM) in the experiment with E. coli TG1/pYGGA.
Take `CCC(O)C(N)C(=O)O` (stereo not drawn) [AHVA, α-amino-β-hydroxyvaleric-acid]: the MIC in the experiment on E. coli TG1/pUC21 (setting [1]) was 100 µg/mL; in the experiment on E. coli TG1/pYAHN, 100 µg/mL (≈ 0.751 mM); in the experiment with E. coli TG1/pYEAS it was 100 µg/mL (≈ 0.751 mM); with E. coli TG1/pYFIK, 200 µg/mL (≈ 1.5 mM); in the experiment with E. coli TG1/pYGGA, 100 µg/mL (≈ 0.751 mM).
Consider `N=C(N)NCCC[C@H](N)C(=O)O` [L-arginine], for which the MIC was found to be 10000 µg/mL with E. coli TG1/pUC21 (setting [1]); 10000 µg/mL (≈ 57.4 mM) in the experiment on E. coli TG1/pYAHN; 10000 µg/mL (≈ 57.4 mM) in the experiment on E. coli TG1/pYEAS; 10000 µg/mL (≈ 57.4 mM) in the experiment on E. coli TG1/pYFIK; 20000 µg/mL (≈ 115 mM) with E. coli TG1/pYGGA.
For `N[C@@H](CCC(=O)O)C(=O)[O-].[Na+]` [L-glutamate (Na salt)], in the experiment with E. coli TG1/pUC21 (E. coli TG1 harboring pUC21 (control vector), M9 agar, doubling increments), the “MIC (μg/ml) for E. coli TG1, harboring the plasmid pUC21” value is on record as 5000 μg/ml. In addition, the “MIC (μg/ml) for E. coli TG1, harboring the plasmid pYAHN” value against E. coli TG1/pYAHN (E. coli TG1 harboring pYAHN (multicopy yahN), M9 agar, doubling increments) worked out at 5000 μg/ml. Also, the “MIC (μg/ml) for E. coli TG1, harboring the plasmid pYEAS” value with E. coli TG1/pYEAS (E. coli TG1 harboring pYEAS (multicopy yeaS), M9 agar, doubling increments) amounted to 20000 μg/ml. Also, the “MIC (μg/ml) for E. coli TG1, harboring the plasmid pYFIK” value against E. coli TG1/pYFIK (E. coli TG1 harboring pYFIK (multicopy yfiK), M9 agar, doubling increments) is given as 10000 μg/ml. Besides, the “MIC (μg/ml) for E. coli TG1, harboring the plasmid pYGGA” value against E. coli TG1/pYGGA (E. coli TG1 harboring pYGGA (multicopy yggA), M9 agar, doubling increments) is given as 5000 μg/ml.
With `O=C(O)[C@@H]1CCCN1` [L-proline], the MIC was 1000 µg/mL in the experiment on E. coli TG1/pUC21 (setting [1]); 2000 µg/mL (≈ 17.4 mM) in the experiment with E. coli TG1/pYAHN; 2000 µg/mL (≈ 17.4 mM) in the experiment on E. coli TG1/pYEAS; 5000 µg/mL (≈ 43.4 mM) with E. coli TG1/pYFIK; 1000 µg/mL (≈ 8.69 mM) with E. coli TG1/pYGGA.
As to `CN(C)CC(N)C(=O)O` (racemic) [4-aza-DL-leucine], the MIC with E. coli TG1/pUC21 (setting [1]) is 100 µg/mL; in the experiment on E. coli TG1/pYAHN, 100 µg/mL (≈ 0.757 mM); with E. coli TG1/pYEAS, 100 µg/mL (≈ 0.757 mM); in the experiment on E. coli TG1/pYFIK, 100 µg/mL (≈ 0.757 mM); in the experiment on E. coli TG1/pYGGA it was 100 µg/mL (≈ 0.757 mM).
As to `CC(C)[C@H](N)C(=O)O` [L-valine], the MIC worked out at 0.5 µg/mL in the experiment with E. coli TG1/pUC21 (setting [1]); 0.5 µg/mL (≈ 0.00427 mM) with E. coli TG1/pYAHN; 0.5 µg/mL (≈ 0.00427 mM) in the experiment with E. coli TG1/pYEAS; 0.5 µg/mL (≈ 0.00427 mM) in the experiment on E. coli TG1/pYFIK; 0.5 µg/mL (≈ 0.00427 mM) in the experiment with E. coli TG1/pYGGA.
Take `CCC(N)C(=O)O` (stereo not drawn) [α-aminobutyric acid]: the MIC in the experiment on E. coli TG1/pUC21 (setting [1]) was 2500 µg/mL; in the experiment on E. coli TG1/pYAHN it was 2500 µg/mL (≈ 24.2 mM); in the experiment on E. coli TG1/pYEAS it was over 10000 µg/mL; in the experiment on E. coli TG1/pYFIK it was 5000 µg/mL (≈ 48.5 mM); with E. coli TG1/pYGGA, 2500 µg/mL (≈ 24.2 mM).
Regarding `NCCCC[C@H](N)C(=O)O` [L-lysine], the MIC in the experiment with E. coli TG1/pUC21 (TG1/PUC21, read-out: MIC (μg/ml) for E. coli TG1, harboring the plasmid pUC21) turned out to be 5000 µg/mL; in the experiment with E. coli TG1/pYAHN, 5000 µg/mL (≈ 34.2 mM); in the experiment on E. coli TG1/pYEAS, 7500 µg/mL (≈ 51.3 mM); in the experiment on E. coli TG1/pYFIK it was 7500 µg/mL (≈ 51.3 mM); with E. coli TG1/pYGGA, 15000 µg/mL (≈ 103 mM).
